Experiments:
[1] = target: T1, von Hippel-Lindau disease tumor suppressor/Estrogen receptor (Homo sapiens, UniProt P03372+P40337); assay: Induction of VHL E3 ligase mediated ERalpha degradation in human MCF7 cells at 0.3 uM by cell-based immunofluorescence assay
Target sequence in this assay (P40337 whole entry, looked up, one chain of several): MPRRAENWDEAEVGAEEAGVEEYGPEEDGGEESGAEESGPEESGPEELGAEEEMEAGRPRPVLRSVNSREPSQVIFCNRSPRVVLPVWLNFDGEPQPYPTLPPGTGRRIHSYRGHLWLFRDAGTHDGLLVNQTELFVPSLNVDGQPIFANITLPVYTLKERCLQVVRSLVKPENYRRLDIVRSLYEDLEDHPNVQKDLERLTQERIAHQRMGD

[2] = target: T1, von Hippel-Lindau disease tumor suppressor/Estrogen receptor; assay: Induction of VHL E3 ligase mediated ERalpha degradation in human MCF7 cells assessed as downregulation of ERalpha expression by cell-based immunofluorescence assay
Target sequence in this assay (P40337 whole entry, one chain of several): as the sequence (P40337 whole entry, looked up, one chain of several) above

Estrogen receptor = target: T2, Estrogen receptor (Homo sapiens, UniProt P03372); assay: Displacement of fluorescent ligand from human recombinant GST-tagged ER-alpha ligand binding domain (307 to 554 residues) incubated for 15 mins by TR-FRET based competitive assay
T2 sequence (P03372 whole entry): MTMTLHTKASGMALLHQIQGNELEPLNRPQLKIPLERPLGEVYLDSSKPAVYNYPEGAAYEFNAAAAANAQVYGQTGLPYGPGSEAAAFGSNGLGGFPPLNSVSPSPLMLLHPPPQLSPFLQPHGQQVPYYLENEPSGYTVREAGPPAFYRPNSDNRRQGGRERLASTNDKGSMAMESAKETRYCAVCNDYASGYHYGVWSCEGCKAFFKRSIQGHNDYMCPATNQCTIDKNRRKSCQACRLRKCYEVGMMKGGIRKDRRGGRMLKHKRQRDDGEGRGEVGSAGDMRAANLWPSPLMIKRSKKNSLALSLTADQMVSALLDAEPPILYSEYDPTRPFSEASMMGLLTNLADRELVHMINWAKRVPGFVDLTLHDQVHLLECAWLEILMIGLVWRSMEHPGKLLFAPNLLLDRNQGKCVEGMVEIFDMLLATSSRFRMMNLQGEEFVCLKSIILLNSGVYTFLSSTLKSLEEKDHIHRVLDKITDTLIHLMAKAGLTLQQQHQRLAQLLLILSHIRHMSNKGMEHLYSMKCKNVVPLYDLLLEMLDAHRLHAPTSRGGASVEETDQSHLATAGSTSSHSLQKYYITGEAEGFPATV

SMILES	Activity [1]	IC50 [2]	IC50 (Estrogen receptor)
Cc1ncsc1-c1ccc(CNC(=O)[C@@H]2C[C@@H](O)CN2C(=O)[C@@H](NC(=O)COCCCOCCCOc2cc(F)c([C@@H]3c4[nH]c5ccccc5c4C[C@@H](C)N3CC(C)(C)F)c(F)c2)C(C)(C)C)cc1	> 90%	0.3 to 0.4 nM	–
C[C@]12CC[C@@H]3c4ccc(O)cc4C[C@@H](CCCCCCCCC[S+]([O-])CCCC(F)(F)C(F)(F)F)[C@H]3[C@@H]1CC[C@@H]2O (some centres not stated)	100%	–	–
Cc1ncsc1-c1ccc(CNC(=O)[C@@H]2C[C@@H](O)CN2C(=O)[C@@H](NC(=O)COCCOCCC(F)(F)CCOc2cc(F)c([C@@H]3c4[nH]c5ccccc5c4C[C@@H](C)N3CC(C)(C)F)c(F)c2)C(C)(C)C)cc1	> 90%	0.8 nM	–
Cc1ncsc1-c1ccc([C@H](C)NC(=O)[C@@H]2C[C@@H](O)CN2C(=O)[C@@H](NC(=O)COCCOCCOCCOc2cc(F)c([C@@H]3c4[nH]c5ccccc5c4C[C@@H](C)N3CC(C)(C)F)c(F)c2)C(C)(C)C)cc1	> 90%	0.3 nM	–
Cc1ncsc1-c1ccc([C@H](C)NC(=O)[C@@H]2C[C@@H](O)CN2C(=O)[C@@H](NC(=O)COCCOCCCCCOc2cc(F)c([C@@H]3c4[nH]c5ccccc5c4C[C@@H](C)N3CC(C)(C)F)c(F)c2)C(C)(C)C)cc1	> 90%	0.6 nM	0.5 nM
Cc1ncsc1-c1ccc(CNC(=O)[C@@H]2C[C@@H](O)CN2C(=O)[C@@H](NC(=O)COCCCOCCOc2cc(F)c([C@@H]3c4[nH]c5ccccc5c4C[C@@H](C)N3CC(C)(C)F)c(F)c2)C(C)(C)C)cc1	> 90%	0.4 nM	–

— ChEMBL document CHEMBL4304828, “PROTAC-Mediated Degradation of Estrogen Receptor in the Treatment of Cancer” (ACS Med Chem Lett, 2019)
